Data set [1] is described as follows: Drug level in Sprague-Dawley rat CSF. In kind it is ADME, Cerebrospinal fluid. The following applies: in vivo, read-out: Ct.
Data set [2] deals with Plasma. Nature of the data set: Unbound plasma concentration in Sprague-Dawley rat. In kind it is ADME, cell-free.
Data set [3] concerns Rattus norvegicus. In words: Reduction of amyloid beta-42 level in Sprague-Dawley rat CSF at 100 mg/kg, po after 4 hrs by immunoassay relative to control. In kind it is functional. Set-up: scale not given: the % may be the effect or the level left.
A short description of data set [4]: Apparent permeability in pig LLC-PK1 cells. The class given is ADME, cell-based, Sus scrofa.
The next data set deals with Gamma-secretase. Nature of the data set: Modulation of gamma-secretase in HEK293 cells expressing guinea pig Swedish mutant SFV-APP695sw assessed as inhibition of amyloid beta-42 production after 16 to 18 hrs by HTRF assay. The class given is cell-based, Homo sapiens.
A short description of data set [5]: Ratio of drug level in brain to plasma in Sprague-Dawley rat. The class given is ADME, cell-free. The following applies: read-out: BPR.
The target of another data set is Cytochrome P450 2D6 (Homo sapiens, UniProt P10635). Nature of the data set: Inhibition of CYP2D6 (unknown origin) after 10 mins. In kind it is ADME.
Sequence of Cytochrome P450 2D6 (P10635 whole entry): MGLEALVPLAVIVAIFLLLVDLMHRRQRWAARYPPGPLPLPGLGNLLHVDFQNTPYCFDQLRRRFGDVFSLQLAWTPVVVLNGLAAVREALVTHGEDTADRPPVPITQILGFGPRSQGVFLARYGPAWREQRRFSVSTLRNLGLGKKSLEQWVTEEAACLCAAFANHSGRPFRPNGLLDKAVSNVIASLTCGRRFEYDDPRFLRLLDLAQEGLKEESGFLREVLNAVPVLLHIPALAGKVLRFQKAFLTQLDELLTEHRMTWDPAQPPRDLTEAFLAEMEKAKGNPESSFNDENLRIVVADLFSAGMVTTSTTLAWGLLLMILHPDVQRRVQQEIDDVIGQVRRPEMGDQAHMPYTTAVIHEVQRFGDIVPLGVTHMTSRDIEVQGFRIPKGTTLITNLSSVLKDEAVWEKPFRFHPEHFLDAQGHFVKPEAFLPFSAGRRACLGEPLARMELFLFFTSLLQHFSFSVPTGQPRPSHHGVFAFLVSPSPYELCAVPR
For another data set, the target named is Cytochrome P450 3A4 (Homo sapiens, UniProt P08684). Nature of the data set: Inhibition of CYP3A4 (unknown origin) after 5 mins. The class given is ADME.
Sequence of Cytochrome P450 3A4 (P08684 whole entry): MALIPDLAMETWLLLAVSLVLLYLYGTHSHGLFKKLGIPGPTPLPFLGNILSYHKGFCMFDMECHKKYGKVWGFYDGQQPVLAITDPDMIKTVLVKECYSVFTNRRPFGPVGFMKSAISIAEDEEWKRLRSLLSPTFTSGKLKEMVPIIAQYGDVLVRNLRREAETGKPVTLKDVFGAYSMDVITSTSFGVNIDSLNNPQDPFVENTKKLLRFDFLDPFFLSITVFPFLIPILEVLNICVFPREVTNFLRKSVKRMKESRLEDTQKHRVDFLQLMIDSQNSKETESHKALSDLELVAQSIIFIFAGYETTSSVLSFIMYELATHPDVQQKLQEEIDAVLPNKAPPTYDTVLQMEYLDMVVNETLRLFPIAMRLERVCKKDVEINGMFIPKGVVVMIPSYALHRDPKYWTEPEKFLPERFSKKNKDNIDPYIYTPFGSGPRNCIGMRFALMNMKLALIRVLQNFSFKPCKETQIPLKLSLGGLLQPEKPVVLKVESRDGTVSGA
Data set [6] is described as follows: Metabolic stability in human liver microsomes at 1 uM after 30 mins. In kind it is ADME. The following applies: read-out: Stability.
Data set [7] in a line: Metabolic stability in rat liver microsomes at 1 uM after 30 mins. The following applies: read-out: Stability. The class given is ADME.
Data set [8] in a line: Ratio of drug level in brain to plasma in mouse at 10 mg/kg, po after 2 hrs. The conditions noted are these: read-out: BPR. Further details: dose 10 mg/kg, route oral. The class given is ADME, organism-based.
Data set [9] can be described thus: Plasma protein binding in Sprague-Dawley rat. The following applies: read-out: PPB (converted). In kind it is ADME, cell-free.
Data set [10] is described as follows: AUC (0 to 24 hrs) in Sprague-Dawley rat at 3 mg/kg at day 4. The class given is ADME, organism-based. Set-up: time < 24 hr, dose 3 mg/kg. The conditions noted are these: plasma.
The nature of data set [11]: AUC (0 to 24 hrs) in Sprague-Dawley rat at 3 mg/kg at day 1. Further details: time < 24 hr, dose 3 mg/kg. The conditions noted are these: plasma. The class given is ADME, organism-based.
Data set [12] has as its system Rattus norvegicus. In words: Toxicity in Sprague-Dawley rat assessed as increase in neutrophils and monocytes in peripheral blood at 1 to 3 mg/kg after 4 days by light microscopic analysis. In kind it is organism-based. The conditions noted are these: in vivo, 96 h. Set-up: dose 1-3 mg/kg.
Data set [13] has as its system Rattus norvegicus. In words: Toxicity in Sprague-Dawley rat assessed as presence of mixed inflammatory infiltrate with mild villus blunting and fusion in duodenum at 1 to 3 mg/kg after 4 days by light microscopic analysis. The class given is organism-based. Further details: dose 1-3 mg/kg. The following applies: in vivo, other, 96 h.
Data set [14] concerns Rattus norvegicus. In words: Toxicity in Sprague-Dawley rat assessed as thickening of hypertrophic zone of tibial physis at 1 to 3 mg/kg after 4 days by light microscopic analysis. In kind it is organism-based. Further details: dose 1-3 mg/kg. The conditions noted are these: in vivo, 96 h.
The test system of data set [15] is Rattus norvegicus. Nature of the data set: Toxicity in Sprague-Dawley rat assessed as increased goblet cell numbers in colon at 1 to 3 mg/kg after 4 days by light microscopic analysis. The class given is organism-based. Further details: dose 1-3 mg/kg. The following applies: in vivo, 96 h.
Data set [16] deals with Rattus norvegicus. In words: Toxicity in Sprague-Dawley rat assessed as increased goblet cell numbers in duodenum at 1 to 3 mg/kg after 4 days by light microscopic analysis. In kind it is organism-based. Set-up: dose 1-3 mg/kg. The following applies: in vivo, other, 96 h.
Data set [17] deals with Rattus norvegicus. In words: Toxicity in Sprague-Dawley rat assessed as thymic cortical lymphoid depletion at 1 to 3 mg/kg after 4 days by light microscopic analysis. The class given is organism-based. Set-up: dose 1-3 mg/kg. The conditions noted are these: in vivo, 96 h.
In data set [18] the test system is Rattus norvegicus. In words: Toxicity in Sprague-Dawley rat assessed as marginal zone lymphoid depletion in spleen at 1 to 3 mg/kg after 4 days by light microscopic analysis. In kind it is organism-based. Further details: dose 1-3 mg/kg. The conditions noted are these: in vivo, 96 h.
Data set [19] has as its system Rattus norvegicus. In words: Reduction of amyloid beta-42 level in Sprague-Dawley rat CSF at 3 mg/kg after 24 hrs by immunoassay relative to control. The class given is functional. Set-up: scale not given: the % may be the effect or the level left.
Data set [20] deals with Rattus norvegicus. Nature of the data set: Reduction of amyloid beta-42 level in Sprague-Dawley rat CSF at 3 mg/kg after 4 hrs by immunoassay relative to control. In kind it is functional. Set-up: scale not given: the % may be the effect or the level left.
The test system of data set [21] is Rattus norvegicus. In words: Reduction of amyloid beta-42 level in Sprague-Dawley rat CSF at 1 mg/kg after 4 hrs by immunoassay relative to control. In kind it is functional. Set-up: scale not given: the % may be the effect or the level left.
Data set [22] deals with Plasma. Nature of the data set: Unbound plasma concentration in Sprague-Dawley rat at 1 mg/kg. In kind it is ADME, organism-based. Set-up: dose 1 mg/kg. The conditions noted are these: in vivo.
In data set [23] the target is Gamma-secretase (Homo sapiens) (UniProt Q96BI3+Q9NZ42+Q8WW43+P49768+Q92542+P49810). In words: Modulation of gamma-secretase in HEK293 cells expressing guinea pig Swedish mutant SFV-APP695sw assessed as inhibition of amyloid beta-42 production at 10 uM after 16 to 18 hrs by HTRF assay relative to control. The class given is cell-based.

Active and inactive are the calls of the source. The calls are words filed in the database; no cut-off is given here.

`Cc1cc(-c2ccc(NC(=O)[C@H](CC(C)C)c3cccc(-c4ccc(N5CCOCC5)cc4)c3)cc2)ccn1`: in data set [1], the concentration turned out to be 2 nM. Moreover, the “Cp(f)” value in the data set on Plasma [2] amounted to 290 nM. In addition, the Activity with Rattus norvegicus [3] came out at 27%. Also, in data set [4], the Papp is below 1 ×10⁻⁶ cm/s. The IC50 on Gamma-secretase turned out to be 20 nM.
In the case of `Cc1cc(-c2ccc(NC(=O)[C@@H](C)c3cc(C(F)(F)F)cc(C(F)(F)F)c3)cc2)ccn1`, in data set [5], the Kp turned out to be 2. Further, the result with Rattus norvegicus [3] was inactive. In addition, the values for the IC50 against Cytochrome P450 2D6, at Cytochrome P450 3A4 and at Gamma-secretase were 2600 nM, above 27 µM and above 10000 nM, respectively. In addition, the microsomal CLint at 1 µM in data set [6] and in data set [7] was below 14 µL/min/mg in each case.
Take `Cc1cc(-c2ccc(NS(=O)(=O)c3cc(Cl)cc(Cl)c3)cc2)ccn1`: the Kp at 2 h in data set [8] was determined as 0.1. For the same compound, the IC50 was 9800 nM against Cytochrome P450 2D6, 4.7 µM at Cytochrome P450 3A4 and 720 nM on Gamma-secretase. The microsomal CLint at 1 µM in data set [6] was 497 µL/min/mg; in data set [7] it was above 399 µL/min/mg.
As to `C[C@H](NC(=O)[C@@H](O)c1cc(F)cc(F)c1)C(=O)N[C@@H]1C(=O)N(C)c2ccccc2-c2ccccc21`, the “Cp(f)” value in the data set on Plasma [2] was determined as 1.2 nM; in the data set on Plasma [22], 0.4 nM. Besides, the fraction unbound in data set [9] was 0.053. In addition, the AUC(0-t) at 24 h was 144 ng·h/mL in [10] and 386 ng·h/mL in data set [11]. Also, the Activity result in the data set on Rattus norvegicus [12], with Rattus norvegicus [13], with Rattus norvegicus [14], in the data set on Rattus norvegicus [15], in the data set with Rattus norvegicus [16] and in the data set with Rattus norvegicus [17] was “Toxic” in each case. The Activity result is “Toxic” with Rattus norvegicus [18], 37% with Rattus norvegicus [19], 66% in the data set on Rattus norvegicus [20] and 33% in the data set with Rattus norvegicus [21].
Regarding `O=S(=O)(Nc1ccc(-n2ccnc2)cc1)c1cc(Cl)cc(Cl)c1`, the Kp at 2 h in data set [8] was 0.07. For the same compound, the IC50 against Cytochrome P450 2D6 came to 100 nM; on Cytochrome P450 3A4, 0.1 µM; at Gamma-secretase, 2100 nM. Besides, the microsomal CLint at 1 µM in [6] and in data set [7] was below 14 µL/min/mg in each case.
Regarding `Cc1cc(-c2ccc(NC(=O)c3cc(Cl)cc(Cl)c3)cc2)ccn1`, the inhibition in data set [23] worked out at 53%. For the same compound, the Kp at 2 h in data set [8] was 1.46. Further, the figures for the 50% inhibitory concentration (IC50) against Cytochrome P450 2D6, against Cytochrome P450 3A4 and at Gamma-secretase were above 27000 nM, above 27 µM and above 10000 nM, respectively. Besides, the values for the microsomal CLint at 1 µM in data set [6] and in data set [7] were 91 µL/min/mg and 19 µL/min/mg, respectively.

The values above are taken from ChEMBL document CHEMBL3085750, “Discovery of 2-methylpyridine-based biaryl amides as γ-secretase modulators for the treatment of Alzheimer's disease” (Bioorg Med Chem Lett, 2013).
